Experimental data from patent EP4772530A1, “PEPTIDE TARGETING SOMATOSTATIN RECEPTOR, DRUG CONJUGATE AND USE THEREOF” (Mainline Biosciences (Shanghai) Co., Ltd., priority 2023, dated 2025).
Like-named read-outs stand apart in the source and are kept apart here. *1 amine or outer side, *2 acyl side, *3 side chain or, on linkers, in order; H or OH if unused. Where a SMILES comes first, the peptide text is derived from it. Bridges are numbered along the chain shown (N, C = ends). Roman numbers before positions name the chains, in order. [ ]: non-standard residue; d: D form. The star is where a group is joined. Exatecan = CC[C@@]1(O)C(=O)OCc2c1cc1n(c2=O)Cc2c-1nc1cc(F)c(C)c3c1c2[C@@H](N*)CC3; X1 = O=C(O)[C@H]1O[C@@H](Oc2ccc(COC(=O)[*:2])cc2N[*:1])[C@H](O)[C@@H](O)[C@@H]1O; Hexanoyl(6-succinimido-3yl) = O=C1CC([*:1])C(=O)N1CCCCCC(=O)[*:2]; Dolaproine = CO[C@@H]([C@@H]1CCCN1)[C@@H](C)C(=O)O; X3 = O=C(CCCCCN1C(=O)CC([*:1])C1=O)NCCC(=O)[*:2]; Dil = CC[C@H](C)[C@H](NC)[C@@H](CC(=O)O)OC; PABC = O=C(OCc1ccc(N[*:1])cc1)[*:2]; PEG6 = NCCOCCOCCOCCOCCOCCOCCC(=O)O; NHCH2OCH2CO = O=C(COCN[*:1])[*:2]; X2 = C[C@@H](N*)[C@@H](O)c1ccccc1; Cit = NC(=O)NCCC[C@H](N)C(=O)O; NMeV = CN[C@H](C(=O)O)C(C)C; AEEA = NCCOCCOCC(=O)O

What was measured:
NCI-H69 = assay: Cell killing in NCI-H69 by CGT (CellTiter-Glo); type: cell-based; conditions: NCI-H69, 96 h; for Bottom (Inhibition at Lowest Point) / Top (Inhibition at Highest Point): Inh% relative to DMSO control, 4-parameter fit
Experimental: Approximately 5 µL of the PDC was added to the corresponding wells of the plate, and compared with DMSO (control, without the PDC of the present application), PTX, MMAE, and Dxd wells. The final concentration of DMSO in each well was 0.2%; • (5) The cells were incubated in a 5% CO2 incubator at 37°C for 96 h; • (6) The cell culture plate was equilibrated to room temperature, and 50 µL of CellTiter-Glo® Reagent was added to each well; • (7) The plate was placed on a shaker for 2 min to ensure complete cell lysis; • (8) After mixing, the plate was placed at room temperature to react for 10 min. The fluorescence value (in RLU) was read when the signal became stable. • c) Data analysis • (1) The inhibition (Inh %) relative to the DMSO control was calculated as follows: Inhibition (Inh%)= 100 -(RLU of compound - RLU of DMSO control)/ (RLU of DMSO control - RLU of blank)*100% • (2) The data were analyzed using Graphpad 5.0 software. A 4-parameter equation was fitted to generate a concentration-response curve to obtain the IC50. Table 3: Test Results of Cell Killing in NCI-H69

SSTR2 = target: T1, SSTR2 (Homo sapiens, UniProt P30874); assay: SSTR2 cAMP test; type: cell-based; conditions: for activity at 50 µM: Max Dose 50000 nM; for EC50: SSTR2/CHO cells, Forskolin, cAMP activation rate
T1 construct: expressed in transfected cells; host or cells: CHO cells (SSTR2/CHO)
T1 sequence (P30874 whole entry): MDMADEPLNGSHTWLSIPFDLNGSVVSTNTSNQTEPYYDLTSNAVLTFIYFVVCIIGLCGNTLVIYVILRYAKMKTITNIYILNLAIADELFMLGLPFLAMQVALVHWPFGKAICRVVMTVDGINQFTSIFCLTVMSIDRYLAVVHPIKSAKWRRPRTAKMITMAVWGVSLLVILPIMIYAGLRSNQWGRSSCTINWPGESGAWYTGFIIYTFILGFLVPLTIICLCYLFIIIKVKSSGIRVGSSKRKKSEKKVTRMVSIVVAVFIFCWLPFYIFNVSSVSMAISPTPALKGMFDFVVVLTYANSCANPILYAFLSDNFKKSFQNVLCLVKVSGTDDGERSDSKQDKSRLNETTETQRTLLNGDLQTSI
Experimental: • 1) Compound preparation: The test compound was diluted by 4-fold with DMSO to obtain 10 different concentration points. Approximately 100 nL of the diluted compound was then transferred to a cell reaction plate and centrifuged for later use. • 2) Cell preparation:The cultured SSTR2/CHO cells were collected into a sterile centrifuge tube, and the supernatant was discarded by centrifugation. • 3) The cells were resuspended in assay buffer, counted using a Vi-cell counter, and diluted with assay buffer. • 4) Approximately 100 nL of 100 µM Forskolin was transferred into the cell reaction plate using an Echo and centrifuged. Then, 10 µL of assay buffer containing the cells was added and incubated. • 5) Approximately 10 µL of cAMP detection reagent solution was added to the corresponding wells of the cell reaction plate, and incubated at room temperature in the dark. • 6) The plate was read using a microplate reader. The final value was determined as the ratio of OD at 665 nm to that at 615 nm. • 7) The cAMP value was calculated for each well: Activity (%)=(signal value of sample well - mean signal value of low-signal control wells)/ (mean signal value of high-signal control wells - mean signal value of low-signal control wells). Fitting was performed using the "Nonlinear regression (curve fit)-log(agonist) vs. response -- Variable slope" model in GraphPad Prism 5.0, with the log-transformed compound concentration on the x-axis and cAMP activation rate on the y-axis. The EC50 value of the sample was calculated accordingly. Table 2: SSTR2 cAMP Test Results

Structure (SMILES)	Bottom (Inhibition at Lowest Point) (NCI-H69)	Top (Inhibition at Highest Point) (NCI-H69)	activity at 50 µM (SSTR2) [%]	EC50 (SSTR2) [nM]	also measured
CC[C@H](C)[C@@H]([C@@H](CC(=O)N1CCC[C@H]1[C@H](OC)[C@@H](C)C(=O)N[C@H](C)[C@@H](O)c1ccccc1)OC)N(C)C(=O)[C@@H](NC(=O)[C@H](C(C)C)N(C)C(=O)OCc1ccc(O[C@@H]2O[C@H](C(=O)O)[C@@H](O)[C@H](O)[C@H]2O)c(NC(=O)CCNC(=O)CCCCCN2C(=O)CC(SC[C@H](NC(C)=O)C(=O)NCCOCCOCC(=O)NCCOCCOCC(=O)NCCOCCOCC(=O)N[C@@H](CCCNC(=N)N)C(=O)N[C@@H](CCCNC(=N)N)C(=O)N[C@@H](CC(C)C)C(=O)N[C@@H](Cc3ccccc3)C(=O)N[C@H]3CSSC[C@@H](C(=O)N[C@H](C(=O)N[C@@H](Cc4c[nH]c5ccccc45)C(=O)N[C@@H](CCCNC(=N)N)C(=O)N[C@@H](CC(=O)O)C(N)=O)[C@@H](C)O)NC(=O)[C@H]([C@@H](C)O)NC(=O)[C@H](CCCCN)NC(=O)[C@@H](Cc4c[nH]c5ccccc45)NC(=O)[C@H](Cc4ccc(O)cc4)NC3=O)C2=O)c1)C(C)C (stereo partly drawn) [Example 4, Ac-Cys(MC-betaglucuronide-MMAE)-AEEA-AEEA-AEEA-Arg-Arg-Leu-Phe-[Cys-Tyr-D-Trp-Lys-Thr-Cys]-Thr-Trp-Arg-Asp-NH2] (I: Ac-C[AEEA][AEEA][AEEA]RRLFCY[dW]KTCTWRD-NH2 / II: [X1][NMeV]V[Dil][Dolaproine]-X2; linker I:1-II:N via X3; disulfide I:9-I:14)	3.88	75.08	95.2		
CC[C@@]1(O)C(=O)OCc2c1cc1n(c2=O)Cc2c-1nc1cc(F)c(C)c3c1c2[C@@H](NC(=O)COCNC(=O)CNC(=O)[C@H](Cc1ccccc1)NC(=O)CNC(=O)CNC(=O)CCCCCN1C(=O)CC(SC[C@H](NC(C)=O)C(=O)NCCOCCOCCOCCOCCOCCOCCC(=O)N[C@@H](CCCNC(=N)N)C(=O)N[C@@H](CCCNC(=N)N)C(=O)N[C@@H](CC(C)C)C(=O)N[C@@H](Cc2ccccc2)C(=O)N[C@H]2CSSC[C@@H](C(=O)N[C@H](C(=O)N[C@@H](Cc4c[nH]c5ccccc45)C(=O)N[C@@H](CCCNC(=N)N)C(=O)N[C@@H](CC(=O)O)C(N)=O)[C@@H](C)O)NC(=O)[C@H]([C@@H](C)O)NC(=O)[C@H](CCCCN)NC(=O)[C@@H](Cc4c[nH]c5ccccc45)NC(=O)[C@H](Cc4ccc(O)cc4)NC2=O)C1=O)CC3 (stereo partly drawn) [Example 6, Ac-Cys(MC-Gly-Gly-Phe-Gly-NH-CH2-Dxd)-PEG6-Arg-Arg-Leu-Phe-[Cys-Tyr-D-Trp-Lys-Thr-Cys]-Thr-Trp-Arg-Asp-NH2] (I: Ac-C[PEG6]RRLFCY[dW]KTCTWRD-NH2 / II: GGFG[NHCH2OCH2CO]-Exatecan; linker I:1-II:N via Hexanoyl(6-succinimido-3yl); disulfide I:7-I:12)			67.8	148	IC50 (NCI-H69): 276 nM
CCC(C)C(C(CC(=O)N1CCCC1C(OC)C(C)C(=O)NC(C)C(O)c1ccccc1)OC)N(C)C(=O)C(NC(=O)C(NC)C(C)C)C(C)C (stereo not drawn) [MMAE]	0.31	85.99			IC50 (NCI-H69; Homo sapiens, read-out: IC50): 0.57 nM
CC(C)C[C@H](NC(=O)[C@H](CCCNC(=N)N)NC(=O)[C@@H](N)CCCNC(=N)N)C(=O)N[C@@H](Cc1ccccc1)C(=O)N[C@H]1CSSC[C@@H](C(=O)N[C@H](C(=O)N[C@@H](Cc2c[nH]c3ccccc23)C(=O)N[C@@H](CCCNC(=N)N)C(=O)N[C@@H](CC(=O)O)C(N)=O)[C@@H](C)O)NC(=O)[C@H]([C@@H](C)O)NC(=O)[C@H](CCCCN)NC(=O)[C@@H](Cc2c[nH]c3ccccc23)NC(=O)[C@H](Cc2ccc(O)cc2)NC1=O [SEQ ID No. 1, H-Arg-Arg-Leu-Phe-[Cys-Tyr-D-Trp-Lys-Thr-Cys]-Thr-Trp-Arg-Asp-NH2] (H-RRLFCY[dW]KTCTWRD-NH2; disulfide 5-10)				217	activity at 100 µM (SSTR2; Max Dose 100000 nM): 98%
CC[C@@]1(O)C(=O)OCc2c1cc1n(c2=O)Cc2c-1nc1cc(F)c(C)c3c1c2[C@@H](NC(=O)CO)CC3 [Dxd]	= 0.0	98.19			IC50 (NCI-H69; Homo sapiens): 7.53 nM
CC(=O)O[C@H]1C(=O)[C@@]2(C)[C@H]([C@H](OC(=O)c3ccccc3)[C@]3(O)C[C@H](OC(=O)[C@H](O)[C@@H](NC(=O)c4ccccc4)c4ccccc4)C(C)=C1C3(C)C)[C@]1(OC(C)=O)CO[C@@H]1C[C@@H]2O [PTX]	0.47	78.37			IC50 (NCI-H69; read-out: IC50): 3.74 nM
CC[C@H](C)[C@@H]([C@@H](CC(=O)N1CCC[C@H]1[C@H](OC)[C@@H](C)C(=O)N[C@H](C)[C@@H](O)c1ccccc1)OC)N(C)C(=O)[C@@H](NC(=O)[C@H](C(C)C)N(C)C(=O)OCc1ccc(NC(=O)[C@H](CCCNC(N)=O)NC(=O)[C@@H](NC(=O)CCCCCN2C(=O)CC(SC[C@H](NC(C)=O)C(=O)NCCOCCOCCOCCOCCOCCOCCC(=O)N[C@@H](CCCNC(=N)N)C(=O)N[C@@H](CCCNC(=N)N)C(=O)N[C@@H](CC(C)C)C(=O)N[C@@H](Cc3ccccc3)C(=O)N[C@H]3CSSC[C@@H](C(=O)N[C@H](C(=O)N[C@@H](Cc4c[nH]c5ccccc45)C(=O)N[C@@H](CCCNC(=N)N)C(=O)N[C@@H](CC(=O)O)C(N)=O)[C@@H](C)O)NC(=O)[C@H]([C@@H](C)O)NC(=O)[C@H](CCCCN)NC(=O)[C@@H](Cc4c[nH]c5ccccc45)NC(=O)[C@H](Cc4ccc(O)cc4)NC3=O)C2=O)C(C)C)cc1)C(C)C (stereo partly drawn) [Example 3, Ac-Cys(MC-Val-Cit-PABC-MMAE)-PEG6-Arg-Arg-Leu-Phe-[Cys-Tyr-D-Trp-Lys-Thr-Cys]-Thr-Trp-Arg-Asp-NH2] (I: Ac-C[PEG6]RRLFCY[dW]KTCTWRD-NH2 / II: V[Cit][PABC][NMeV]V[Dil][Dolaproine]-X2; linker I:1-II:N via Hexanoyl(6-succinimido-3yl); disulfide I:7-I:12)			95.4	559	
C[C@@H](O)[C@@H]1NC(=O)[C@H](CCCCN)NC(=O)[C@H](Cc2c[nH]c3ccccc23)NC(=O)[C@H](Cc2ccccc2)NC(=O)[C@H](Cc2ccccc2)NC(=O)[C@H](CC(N)=O)NC(=O)[C@H](CCCCN)NC(=O)[C@@H](NC(=O)[C@@H]2CCCN2)CSSC[C@@H](C(=O)N[C@@H](CCCCN)C(=O)O)NC(=O)[C@H](CO)NC(=O)[C@H](CO)NC(=O)[C@H](Cc2ccccc2)NC1=O [Cortistatin14, reference compound] (H-PCKNFFWKTFSSCK-OH; disulfide 2-13)				1.38	activity at 1 µM (SSTR2; Max Dose 1000 nM): 99.7%
